Key:
Assay type in all cases: ADME, organism-based
[1] = Plasma concentration in mouse xenografted with human SU-DHL10 cells at 10 mg/kg, po administered twice daily via gavage for 21 days measured at 2 hrs post last dose
[2] = Plasma concentration in mouse xenografted with human SU-DHL10 cells at 3 mg/kg, po administered twice daily via gavage for 21 days measured at 2 hrs post last dose
[3] = Plasma concentration in mouse xenografted with human SU-DHL10 cells at 10 mg/kg, po administered once daily via gavage for 21 days measured at 12 hrs post last dose
[4] = Plasma concentration in mouse xenografted with human SU-DHL10 cells at 1 mg/kg, po administered twice daily via gavage for 21 days measured at 12 hrs post last dose
[5] = Plasma concentration in mouse xenografted with human SU-DHL10 cells at 10 mg/kg, po administered once daily via gavage for 21 days measured at 2 hrs post last dose
[6] = Plasma concentration in mouse xenografted with human SU-DHL10 cells at 10 mg/kg, po administered twice daily via gavage for 21 days measured at 12 hrs post last dose
[7] = Plasma concentration in mouse xenografted with human SU-DHL10 cells at 20 mg/kg, po administered twice daily via gavage for 21 days measured at 12 hrs post last dose
[8] = Plasma concentration in mouse xenografted with human SU-DHL10 cells at 20 mg/kg, po administered twice daily via gavage for 21 days measured at 2 hrs post last dose
[9] = Plasma concentration in mouse xenografted with human SU-DHL10 cells at 3 mg/kg, po administered twice daily via gavage for 21 days measured at 12 hrs post last dose
[10] = Plasma concentration in mouse xenografted with human SU-DHL10 cells at 1 mg/kg, po administered twice daily via gavage for 21 days measured at 2 hrs post last dose

With Cc1ccc2ncccc2c1-c1cc(-c2c(C)noc2C)cc2nc(C3CC3)[nH]c12 the concentration at 2 h [1] was 4320 nM, the concentration at 2 h [2] was 2620 nM and the concentration at 12 h [3] was 207 nM. The concentration at 12 h [4] was 13 nM, the concentration at 2 h [5] was 5830 nM and the concentration at 12 h [6] was 32 nM. It also gave a concentration at 12 h [7] of 32 nM, a concentration at 2 h [8] of 4780 nM and a concentration at 12 h [9] of 18 nM. It also gave a concentration at 2 h [10] of 556 nM.

From ChEMBL document CHEMBL4330118, “Structure-guided discovery of a novel, potent, and orally bioavailable 3,5-dimethylisoxazole aryl-benzimidazole BET bromodomain inhibitor” (Bioorg Med Chem, 2019)
